The test deals with T1, human transferrin receptor (hTfR) (Homo sapiens, UniProt P02786).
T1 construct: made in house
Put plainly: Evaluation of molecular interaction between transferrin receptor (hTfR) and peptide using surface plasmon resonance (SPR). The note with it: KD class for binding to hTfR by SPR; peptide with the linker shown in the same line; 'low signal indicates no activity'; read-out: SPR. In kind it is binding. In short, it runs like this:
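Recombinant human TfR dimer (0.5 μM) was captured on a Ni-charged NTA chip and amine-coupled with EDC/NHS, then ethanolamine-capped. Peptides at 5–100 nM in HEPES pH 8.0 buffer with 150 mM NaCl, 0.05% Tween 20, 0.1% BSA and 1.0% DMSO were run by single-cycle kinetics; KD came from least-squares curve fitting.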

Molecules are shown by their SMILES. Positions of bridges follow the written chain, without caps; N, C: chain ends. Non-standard residues stand in square brackets, D forms with d. Residues, ends and D or L forms follow the SMILES beside them. *: point of attachment. Ala(1-CH2CO2H-4-piperidyl) = N[C@@H](CC1CCN(CC(=O)O)CC1)C(=O)O; Trp(1-CH2COOH) = N[C@@H](Cc1cn(CC(=O)O)c2ccccc12)C(=O)O; Nle(6-morpholino) = N[C@@H](CCCCN1CCOCC1)C(=O)O; NMePhe(3-Cl) = CN[C@@H](Cc1cccc(Cl)c1)C(=O)O; NMeY = CN[C@@H](Cc1ccc(O)cc1)C(=O)O; PEG4 = NCCOCCOCCOCCOCCC(=O)O; Carboxymethyl = O=C(O)C*

T1 sequence (P02786 89-760 limits assumed): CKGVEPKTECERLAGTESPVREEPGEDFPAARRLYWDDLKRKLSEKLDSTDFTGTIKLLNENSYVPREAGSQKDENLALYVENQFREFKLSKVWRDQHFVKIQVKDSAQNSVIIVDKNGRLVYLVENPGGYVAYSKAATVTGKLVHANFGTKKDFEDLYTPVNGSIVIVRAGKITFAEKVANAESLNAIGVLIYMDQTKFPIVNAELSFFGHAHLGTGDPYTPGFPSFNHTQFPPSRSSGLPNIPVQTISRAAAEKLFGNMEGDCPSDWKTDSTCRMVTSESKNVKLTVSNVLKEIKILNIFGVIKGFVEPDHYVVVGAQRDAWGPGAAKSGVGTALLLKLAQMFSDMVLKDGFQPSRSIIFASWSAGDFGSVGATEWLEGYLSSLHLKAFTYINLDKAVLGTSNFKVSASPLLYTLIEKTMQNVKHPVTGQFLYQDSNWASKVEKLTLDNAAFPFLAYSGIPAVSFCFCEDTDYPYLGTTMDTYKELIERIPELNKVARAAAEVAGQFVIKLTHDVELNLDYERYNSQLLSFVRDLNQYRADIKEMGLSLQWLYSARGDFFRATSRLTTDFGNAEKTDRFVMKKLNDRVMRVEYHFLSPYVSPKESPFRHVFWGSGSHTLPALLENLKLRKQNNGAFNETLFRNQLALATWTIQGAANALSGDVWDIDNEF

Regarding `CC[C@H](C)[C@@H]1NC(=O)[C@H](Cc2ccc(OCC(=O)O)cc2)NC(=O)[C@H](Cc2ccc(O)cc2)NC(=O)[C@H](CC(N)=O)NC(=O)[C@H](Cc2cn(CC(=O)O)c3ccccc23)NC(=O)[C@H](C(C)C)NC(=O)[C@H](Cc2cccc(Cl)c2)N(C)C(=O)[C@H](C(C)C)NC(=O)[C@H](C)NC(=O)CSC[C@@H](C(=O)NCCOCCOCCOCCOCCC(N)=O)NC(=O)[C@H](Cc2ccc(O)cc2)N(C)C(=O)[C@H](Cc2ccccc2)NC(=O)[C@H](CC2CCN(CC(=O)O)CC2)NC(=O)[C@H](CCCNC(=N)N)NC(=O)[C@H]([C@@H](C)CC)NC1=O` [894_0387] ({CH2CO}-AV[NMePhe(3-Cl)]V[Trp(1-CH2COOH)]NYY(Carboxymethyl)IIR[Ala(1-CH2CO2H-4-piperidyl)]F[NMeY]C[PEG4]-NH2; thioether N-15), the Kd fell in the range of 1 to 100 nM.
On to `CC[C@H](C)[C@@H]1NC(=O)[C@H](Cc2ccc(OCC(=O)O)cc2)NC(=O)[C@H](Cc2ccc(O)cc2)NC(=O)[C@H](CC(N)=O)NC(=O)[C@H](Cc2cn(CC(=O)O)c3ccccc23)NC(=O)[C@H](C(C)C)NC(=O)[C@H](Cc2cccc(Cl)c2)N(C)C(=O)[C@H](C(C)C)NC(=O)[C@H](C)NC(=O)CSC[C@@H](C(=O)NCCOCCOCCOCCOCCC(N)=O)NC(=O)[C@H](Cc2ccc(O)cc2)N(C)C(=O)[C@H](Cc2ccccc2)NC(=O)[C@H](CCCNC(=N)N)NC(=O)[C@H](CCCCN2CCOCC2)NC(=O)[C@H]([C@@H](C)CC)NC1=O` [894_0388], for which the Kd is < 1 nM.
Turning to `CC[C@H](C)[C@@H]1NC(=O)[C@H](Cc2ccc(OCC(=O)O)cc2)NC(=O)[C@H](Cc2ccc(O)cc2)NC(=O)[C@H](CC(N)=O)NC(=O)[C@H](Cc2cn(CC(=O)O)c3ccccc23)NC(=O)[C@H](C(C)C)NC(=O)[C@H](Cc2cccc(Cl)c2)N(C)C(=O)[C@H](C(C)C)NC(=O)[C@H](C)NC(=O)CSC[C@@H](C(=O)NCCOCCOCCOCCOCCC(N)=O)NC(=O)[C@H](Cc2ccc(O)cc2)N(C)C(=O)[C@H](Cc2ccccc2)NC(=O)[C@H](CCCCN2CCOCC2)NC(=O)[C@H](CCCNC(=N)N)NC(=O)[C@H]([C@@H](C)CC)NC1=O` [894_0389] ({CH2CO}-AV[NMePhe(3-Cl)]V[Trp(1-CH2COOH)]NYY(Carboxymethyl)IIR[Nle(6-morpholino)]F[NMeY]C[PEG4]-NH2; thioether N-15), the Kd is < 1 nM.
Consider `CC[C@H](C)[C@@H]1NC(=O)[C@H](Cc2ccc(OCC(=O)O)cc2)NC(=O)[C@H](Cc2ccc(O)cc2)NC(=O)[C@H](CC(N)=O)NC(=O)[C@H](Cc2cn(CC(=O)O)c3ccccc23)NC(=O)[C@H](C(C)C)NC(=O)[C@H](Cc2cccc(Cl)c2)N(C)C(=O)[C@H](C(C)C)NC(=O)[C@H](C)NC(=O)CSC[C@@H](C(=O)NCCOCCOCCOCCOCCC(N)=O)NC(=O)[C@H](Cc2ccc(O)cc2)N(C)C(=O)[C@H](Cc2ccccc2)NC(=O)[C@H](CCCCN2CCOCC2)NC(=O)[C@H](CCCCN2CCOCC2)NC(=O)[C@H]([C@@H](C)CC)NC1=O` [894_0390] ({CH2CO}-AV[NMePhe(3-Cl)]V[Trp(1-CH2COOH)]NYY(Carboxymethyl)II[Nle(6-morpholino)][Nle(6-morpholino)]F[NMeY]C[PEG4]-NH2; thioether N-15), for which the Kd was < 1 nM.
With `CC[C@H](C)[C@@H]1NC(=O)[C@H](Cc2ccc(O)cc2)NC(=O)[C@H](Cc2ccc(O)cc2)NC(=O)[C@H](CC(N)=O)NC(=O)[C@H](Cc2c[nH]c3ccc(Cl)cc23)NC(=O)[C@H](C(C)C)NC(=O)[C@H](Cc2ccccc2)N(C)C(=O)[C@H](C(C)C)NC(=O)[C@H](C)NC(=O)CSC[C@@H](C(=O)NCC(=O)N[C@@H](CCCCN=[N+]=[N-])C(N)=O)NC(=O)[C@H](Cc2ccc(O)cc2)N(C)C(=O)[C@H](Cc2ccccc2)NC(=O)[C@H](CCCNC(=N)N)NC(=O)[C@H](CCCNC(=N)N)NC(=O)[C@H]([C@@H](C)CC)NC1=O` [894_3153] the figure was 1 to 100 nM; with `CC[C@H](C)[C@@H]1NC(=O)[C@H](Cc2ccc(OC)cc2)NC(=O)[C@H](Cc2ccc(O)cc2)NC(=O)[C@H](CC(N)=O)NC(=O)[C@H](Cc2c[nH]c3ccc(Cl)cc23)NC(=O)[C@H](C(C)C)NC(=O)[C@H](Cc2ccccc2)N(C)C(=O)[C@H](C(C)C)NC(=O)[C@H](C)NC(=O)CSC[C@@H](C(=O)NCC(=O)N[C@@H](CCCCN=[N+]=[N-])C(N)=O)NC(=O)[C@H](Cc2ccc(O)cc2)N(C)C(=O)[C@H](Cc2ccccc2)NC(=O)[C@H](CCCNC(=N)N)NC(=O)[C@H](CCCNC(=N)N)NC(=O)[C@H]([C@@H](C)CC)NC1=O` [894_3154], 1 to 100 nM; with `CC[C@H](C)[C@@H]1NC(=O)[C@H](Cc2ccc(OC)cc2)NC(=O)[C@H](Cc2ccc(O)cc2)NC(=O)[C@H](CC(N)=O)NC(=O)[C@H](Cc2c[nH]c3ccc(Cl)cc23)NC(=O)[C@H](C(C)C)NC(=O)[C@H](Cc2ccccc2)N(C)C(=O)[C@H](C(C)C)NC(=O)[C@H](C)NC(=O)CSC[C@@H](C(=O)NCC(=O)N[C@@H](CCCCN=[N+]=[N-])C(N)=O)NC(=O)[C@H](Cc2ccc(O)cc2)N(C)C(=O)[C@H](Cc2ccccc2)NC(=O)[C@@H](CCCNC(=N)N)NC(=O)[C@H](CCCNC(=N)N)NC(=O)[C@H]([C@@H](C)CC)NC1=O` [894_3155], 1 to 100 nM.
Take `CC[C@H](C)[C@@H]1NC(=O)[C@H](Cc2ccc(OC)cc2)NC(=O)[C@H](Cc2ccc(O)cc2)NC(=O)[C@H](CC(N)=O)NC(=O)[C@H](Cc2c[nH]c3ccc(Cl)cc23)NC(=O)[C@H](C(C)C)NC(=O)[C@H](Cc2ccc(F)cc2)N(C)C(=O)[C@H](C(C)C)NC(=O)[C@H](C)NC(=O)CSC[C@@H](C(=O)NCC(=O)N[C@@H](CCCCN=[N+]=[N-])C(N)=O)NC(=O)[C@H](Cc2ccc(O)cc2)N(C)C(=O)[C@H](Cc2ccccc2)NC(=O)[C@H](CCCNC(=N)N)NC(=O)[C@H](CCCNC(=N)N)NC(=O)[C@H]([C@@H](C)CC)NC1=O` [894_3156]: the Kd fell in the range of 1 to 100 nM.
As to `CC[C@H](C)[C@@H]1NC(=O)[C@H](Cc2ccc(OC)cc2)NC(=O)[C@H](Cc2ccc(O)cc2)NC(=O)[C@H](CC(N)=O)NC(=O)[C@H](Cc2c[nH]c3ccc(Cl)cc23)NC(=O)[C@H](C(C)C)NC(=O)[C@H](Cc2ccc(F)cc2)N(C)C(=O)[C@H](C(C)C)NC(=O)[C@H](C)NC(=O)CSC[C@@H](C(=O)NCC(=O)N[C@@H](CCCCN=[N+]=[N-])C(N)=O)NC(=O)[C@H](Cc2ccc(O)cc2)N(C)C(=O)[C@H](Cc2ccccc2)NC(=O)[C@@H](CCCNC(=N)N)NC(=O)[C@H](CCCNC(=N)N)NC(=O)[C@H]([C@@H](C)CC)NC1=O` [894_3157], the Kd is 100 to 1000 nM.
For `CC[C@H](C)[C@@H]1NC(=O)[C@H](Cc2ccc(OC)cc2)NC(=O)[C@H](Cc2ccc(O)cc2)NC(=O)[C@H](CC(N)=O)NC(=O)[C@H](Cc2c[nH]c3ccccc23)N(C)C(=O)[C@H](C(C)C)NC(=O)[C@H](Cc2ccncc2)N(C)C(=O)[C@H](C(C)C)NC(=O)[C@H](C)NC(=O)CSC[C@@H](C(=O)NCC(=O)N[C@@H](CCCCN=[N+]=[N-])C(N)=O)NC(=O)[C@H](Cc2ccc(O)cc2)N(C)C(=O)[C@H](Cc2ccccc2)NC(=O)[C@@H](CCCNC(=N)N)NC(=O)[C@H](CCCNC(=N)N)NC(=O)[C@H]([C@@H](C)CC)NC1=O` [894_3158], the Kd was in the range of 1 to 100 nM.
The result for `CC[C@H](C)[C@@H]1NC(=O)[C@H](Cc2ccc(OC)cc2)NC(=O)[C@H](Cc2ccc(O)cc2)NC(=O)[C@H](CC(N)=O)NC(=O)[C@H](Cc2c[nH]c3ccccc23)N(C)C(=O)[C@H](C(C)C)NC(=O)[C@H](Cc2cccc(C(=O)O)c2)N(C)C(=O)[C@H](C(C)C)NC(=O)[C@H](C)NC(=O)CSC[C@@H](C(=O)NCC(=O)N[C@@H](CCCCN=[N+]=[N-])C(N)=O)NC(=O)[C@H](Cc2ccc(O)cc2)N(C)C(=O)[C@H](Cc2ccccc2)NC(=O)[C@@H](CCCNC(=N)N)NC(=O)[C@H](CCCNC(=N)N)NC(=O)[C@H]([C@@H](C)CC)NC1=O` [894_3159] reads 100 to 1000 nM; that for `CC[C@H](C)[C@@H]1NC(=O)[C@H](Cc2ccc(O)cc2)NC(=O)[C@H](Cc2ccc(O)cc2)NC(=O)[C@H](C)NC(=O)[C@H](Cc2c[nH]c3ccccc23)NC(=O)[C@H](C(C)C)NC(=O)[C@H](Cc2ccccc2)N(C)C(=O)[C@H](C(C)C)NC(=O)[C@H](C)NC(=O)CSC[C@@H](C(=O)NCC(=O)N[C@@H](CCCCN=[N+]=[N-])C(N)=O)NC(=O)[C@H](Cc2ccc(O)cc2)N(C)C(=O)[C@H](Cc2ccc(O)cc2)NC(=O)[C@H](CCCNC(=N)N)NC(=O)[C@H](CCCNC(=N)N)NC(=O)[C@H]([C@@H](C)CC)NC1=O` [894_3160], 100 to 1000 nM; that for `CC[C@H](C)[C@@H]1NC(=O)[C@H](Cc2ccc(O)cc2)NC(=O)[C@H](Cc2ccc(O)cc2)NC(=O)[C@H](CC(N)=O)NC(=O)[C@H](Cc2c[nH]c3ccc(Cl)cc23)NC(=O)[C@H](C(C)C)NC(=O)[C@H](Cc2ccccc2)N(C)C(=O)[C@H](C(C)C)NC(=O)[C@H](C)NC(=O)CSC[C@@H](C(=O)NCC(=O)N[C@@H](CCCCN=[N+]=[N-])C(N)=O)NC(=O)[C@H](Cc2ccc(O)cc2)N(C)C(=O)[C@H](Cc2ccc(O)cc2)NC(=O)[C@H](CCCNC(=N)N)NC(=O)[C@H](CCCNC(=N)N)NC(=O)[C@H]([C@@H](C)CC)NC1=O` [894_3161], 1 to 100 nM.
The result for `CC[C@H](C)[C@@H]1NC(=O)[C@H](Cc2ccc(OC)cc2)NC(=O)[C@H](Cc2ccc(O)cc2)NC(=O)[C@H](CC(N)=O)NC(=O)[C@H](Cc2c[nH]c3ccc(Cl)cc23)NC(=O)[C@H](C(C)C)NC(=O)[C@H](Cc2ccccc2)N(C)C(=O)[C@H](C(C)C)NC(=O)[C@H](C)NC(=O)CSC[C@@H](C(=O)NCC(=O)N[C@@H](CCCCN=[N+]=[N-])C(N)=O)NC(=O)[C@H](Cc2ccc(O)cc2)N(C)C(=O)[C@H](Cc2ccc(O)cc2)NC(=O)[C@H](CCCNC(=N)N)NC(=O)[C@H](CCCNC(=N)N)NC(=O)[C@H]([C@@H](C)CC)NC1=O` [894_3162] reads 1 to 100 nM.

(Values after US20260116920A1, “HUMAN TRANSFERRIN RECEPTOR BINDING PEPTIDE” (PEPTIDREAM INC., priority 2021, published 2026).)
